Marks after values point to notes of the source that are not given here.
Tests used:
p73 null cells = assay: SNS-595 sensitivity in p73 null vs p73 containing cells; type: cell-based; settings: p73 null cells as compared to p73 containing cells
HCT116 cells = assay: High content screening and microscopy, nuclear foci (gH2AX, pATM); type: cell-based; settings: HCT116 cells dosed for 6 hour
Procedure: Cells were plated as sub-confluent populations and allowed to grow for 36 hours. Cells were then treated with the compound at the given concentration for the given time period. Cells were fixed using 4% formaldehyde and permeabilized with 0.1% triton. Cells were exposed to primary antibodies for 1 hour at 25° C. at a 1:100 dilution in 10% FBS/PBS (anti-pATM—Chemicon, anti-gH2AX-Cell Signaling Technology). Cells were exposed to secondary antibodies for 1 hour at 25° C. at a 1:100 dilution in 10% FBS/PBS. Hoechst staining was carried out in 10% FBS/PBS at 500 ng/ml concentrations. High content screening was carried out on a Cellomics Arrayscan instrument using the Spot Detector algorithm. […] Cells were then fixed and analyzed for protein phosphorylation state (gH2AX images obtained using a fluorescence microscope, pATM images obtained with the ArrayScan VTi).

[1] = system: HCT-116 cells treated with 2 mM caffeine; assay: MTT assay, sensitization (caffeine); type: cell-based; settings: 2 mM caffeine pre-treated for 16 hours, compound 72 hours
Procedure: Cells were then incubated with 5% MTT for 1-2 hours and lysed. MTT was colorimetrically read at 570 nm and EC50's were determined using linear regression analysis.
Sensitization was carried out with various chemical treatments.

HCT-116 = assay: Timing of apoptosis (caspase-3 activation); type: cell-based; settings: Cell Line HCT-116; dosed at 30 fold above the EC50 for cytotoxicity
[2] = system: CCRF-CEM acute lymphoblastic leukemia tumor; assay: CCRF-CEM xenograft model; type: in vivo, nude mice; settings: q7d X3, IV, 25 mg/kg
Procedure: CCRF-CEM acute lymphoblastic leukemia tumor lobes of 2-3 mm square were transplanted subcutaneously into nude mice. Tumors were allowed to grow to approximately 8-20 mm in diameter. […] Acceptable toxicity was defined as a mean group weight loss of 30% or less and not more than one toxic death among 6 treated animals. Anti-tumor activities of the drugs were assessed 20 or 21 days after the start of administration. Table 14 provides data for tumor inhibition (TI) and survival rate in the CCRF-CEM and LM3-Jck xenograft models.

[3] = design: species or system female CD-1 mice; settings: mouse, in vivo
Procedure: Female CD-1 mice were administered 5, 10, 15, or 20 mg/kg SNS-595 intravenously on Day 0 and Day 4. Blood was drawn on days 6, 8, and 12 post initial injection for hematological analysis. Femurs were extracted on day 6 fixed in Streck and H&E stained prior to bone marrow cellularity analysis. […] At 20 mg/kg, cellularity was reduced to 7.5%, while circulating neutrophils were reduced from a pre-dose level of […] to a nadir of 51±24 cells/mL blood on day 8.

clinical = settings: human, in vivo; for AUC(0-inf) / half-life: both sexes
Procedure: SNS-595 was administered to patients with advanced or refractory acute leukemias as a slow IV push. Diagnoses included AML (19 patients) and ALL (2 patients). All patients had disease refractory to or relapsed from prior therapy (median 3 prior regimens (range 1-6)).
A total of 21 patients (9 female and 12 male; median age=64 yrs, range 21-80) were treated in five cohorts using two schedules. In the first schedule (A), a weekly dose of SNS-595 was administered for three weeks followed by 7 days off (qwk×3). In the second schedule (B), a dose of SNS-595 was administered twice a week for two weeks (biwk×2). The cycle duration, including days off, was 28 days for both schedules. […] Additional cycles were permitted if patients achieved stable disease or better. The starting dose was 18 mg/m^2 on schedule A and 9 mg/m^2 on schedule B, and dosage was escalated by cohort. Cohorts of 3-6 patients were accrued to doses using a modified Fibonacci sequence.
Pharmacokinetic analyses for SNS-595 were performed on plasma samples collected during cycle 1.
Plasma SNS-595 concentrations were determined using a validated LC-MS/MS assay. Plasma exposures at the first two dose levels for each schedule increased linearly, resulting in AUCs of 4.3-17.8 ughr/mL for 9-27 mg/m^2 doses. […] Six patients distributed across all dosing groups shown in Table 15 experienced greater than 50% reductions in peripheral blasts following cycle 1.

In the case of `CN[C@H]1CN(c2ccc3c(=O)c(C(=O)O)cn(-c4nccs4)c3n2)C[C@@H]1OC` [SNS-595, (+)-1,4-dihydro-7-[(3S,4S)-3-methoxy-4-(methylamino)-1-pyrrolidinyl]-4-oxo-1-(2-thiazolyl)-1,8-naphthyridine-3-carboxylic acid], the “decrease in SNS-595 sensitivity” value (p73 null cells) is reported as “more than 11 fold”, the “nuclear foci formation (gH2AX, pATM)” value (HCT116 cells) is reported as “leads to nuclear foci formation” and the “Sensitization, fold decrease in the EC50 for cytotoxicity (MTT): Caffeine” value [1] is reported as 0.5 fold. For the same compound, the “Timing of apoptosis: fraction of cell cycle to achieve 50% maximal caspase-3 activation” value (HCT-116) was 0.4, the “IR (%) (tumor inhibition rate)” value [2] was 98.1* % and the peripheral neutrophils [3] was “significant decrease”. For the same compound, the platelet response [3] was “minor platelet response”, the “Total WBCs” value ([3]; iv) was “reached a nadir on day 8, but returned to normal levels” and the AUC(0-inf) (clinical; 9 mg/m2) was 4300 ± 1300 ng·h/mL. The AUC(0-inf) (clinical; 13.5 mg/m2) was 5900 ± 2900 ng·h/mL, the half-life (clinical; 13.5 mg/m2) was 21 ± 7 h and the AUC(0-inf) (clinical; 18 mg/m2) was 8000 ± 1400 ng·h/mL. The AUC(0-inf) (clinical; 27 mg/m2) was 17800 ± 5000 ng·h/mL, the half-life (clinical; 27 mg/m2) was 22 ± 10 h and the “terminal half-lives, averaged” value (clinical; both) was 23 h. For the same compound, the “T ½” value (clinical; both, 9 mg/m2) was 24 ± 5 h, the Vssobs (clinical; both, 9 mg/m2) was 65 ± 2 L/m^2 and the Vssobs (clinical; both, 13.5 mg/m2) was 61 ± 6 L/m^2. The “T ½” value (clinical; both, 18 mg/m2) was 24 ± 4 h, the Vssobs (clinical; both, 18 mg/m2) was 72 ± 21 L/m^2 and the Vssobs (clinical; both, 27 mg/m2) was 47 ± 21 L/m^2. The “CL, averaged” value (clinical) was roughly 2 L/hr/m^2 and the “Vss, averaged” value (clinical) was 58 L/m^2.

From US8580814B2, “Methods of using (+)-1,4-dihydro-7-[(3S,4S)-3-methoxy-4-(methylamino)-1-pyrrolidinyl]-4- oxo-1-(2-thiazolyl)-1,8-naphthyridine-3-carboxylic acid for treatment of cancer” (priority 2006, dated 2013)
